Measurements from patent US20240115554A1, “METHODS FOR TREATING OBSTRUCTIVE HYPERTROPHIC CARDIOMYOPATHY” (Cytokinetics, Incorporated, priority 2022, published 2024).
Entries after “also recorded” stand apart in the source; their conditions may differ.

Legend:
cardiac myosin = cardiac myosin (Homo sapiens, UniProt P12883); assay: Preclinical models: myocardial contractility; settings: preclinically in vitro and in vivo
From the text: This mechanism of action may be therapeutically effective in conditions characterized by excessive hypercontractility, such as HCM (e.g., obstructive HCM, also referred to as oHCM).

[1] = test system: patients with symptomatic obstructive HCM (oHCM); assay: Phase 2 trial: cardiac biomarkers (NT-proBNP, hs-troponin); type: in vivo, human
Description: Echocardiograms obtained every 2 weeks and 2 weeks after the last dose were analyzed for several key structural and physiologic metrics and N-terminal prohormone of brain natriuretic peptide (NT-proBNP). Secondary results from the clinical study included data from Cohort 3 (n=13). […] Overall, treatment duration for each patient in the study was 10 weeks with an echocardiogram conducted 2 weeks after the last dose. Efficacy endpoints included resting and provoked LVOT gradients, NYHA class, and NT-proBNP.

[2] = Phase 1 plasma aficamten pharmacokinetics (SAD, MAD, CYP2D6-PM, food-effect cohorts); type: in vivo, human; settings: for CL/F: mean ± SD
Description: CYP2D6 poor metabolizer cohort.
CYP2D6 genotypes were determined at screening for all study participants; those identified as CYP2D6-PMs were excluded from the SAD and MAD cohorts but were invited to participate in the CYP2D6-PM cohort. The first individual in the CYP2D6-PM cohort was dosed after the SAD 25-mg cohort (FIG. 2). […] Nine participants were randomized (7:2) with a sentinel dosing group consisting of the first 2 participants treated.
Food-effect cohort. […] Participants were randomized in a 1:1 ratio to 1 of 2 sequences: fasted/fed or fed/fasted.
Pharmacokinetic analyses. For all study groups, blood samples for PK assessment were obtained pre-dose, up to 12 times daily on day 1, and then at regular intervals throughout the study. Blood samples were collected according to the following schedule: SAD Cohorts: Day 1: pre-dose and 0.25, 0.5, 1, 1.5, 2, 2.5, 3, 4, 6, 8, 12, 16, 24, 36, 48, 72, 96, and 216 h post dose. […] CYPD6-PM Cohort: Day 1: pre-dose and 0.25, 0.5, 1, 1.5, 2, 2.5, 3, 4, 6, 8, 12, 16, 24, 36, 48, 72, 96, 216, 312, and 552 h post dose. Food-Effect Cohort: Day 1: pre-dose and 0.25, 0.5, 1, 1.5, 2, 2.5, 3, 4, 6, 8, 12, 16, 24, 36, 48, 72, 96, 144, and 216 h post dose. Standard non-compartmental methods were used to calculate PK parameters using Phoenix® WinNonlin® Version 7.0; actual sample collection times were utilized.
For the MAD cohort, the parameters were AUC24 and Cmax on day 1, plus AUC to the […] (AUCtau) and Cmax on day 14 or 17. The statistical linear relationship between the ln-transformed PK parameters and the ln-transformed dose was verified by including the quadratic (ln Dose)^2 and cubic (ln Dose)^3 effects. […] The dose-proportionality analysis was performed using SAS® PROC MIXED.
An analysis of variance (ANOVA) model was conducted separately for each dose level; day was included as the fixed effect. Helmert contrasts were developed such that each time-point was compared with the mean of the subsequent time-points.

[3] = test system: patients with symptomatic oHCM; assay: Open-label extension: safety and tolerability; type: in vivo, human; settings: for Patients with TEAE Leading to Dose Reduction / Patients with TEAE Leading to Drug Interruption / Patients with at Least One Related TEAE / Patients with at Least One Severe TEAE / Patients with at Least One TEAE / Patients with at Least One TESAE: open-label extension, preliminary safety
Description: An open-label extension clinical trial of aficamten in patients with symptomatic oHCM was initiated.
An open-label extension clinical trial of aficamten in patients with symptomatic oHCM was initiated. The treatment duration is anticipated to be multiple years.
Safety and tolerability are evaluated by (i) patient incidence of adverse events, (ii) patient incidence of serious adverse events, (iii) patient incidence of LVEF <50%.

[4] = test system: patients with symptomatic oHCM; assay: Open-label extension: background therapy reduction/withdrawal (BTR/W); type: in vivo, human
Description: Patients were dosed following the protocol of Example 3a or Example 3b. Patients were classified as receiving SoC therapy (both first line and second line) if treated with at least one beta-blocker (BB), non-dihydropyridine calcium channel blocker (CCB), or disopyramide. […] Successful BTR/W was defined as at least a dose-reduction of one medication to ≤50% of baseline. Serial metrics were collected per protocol but side effects specifically related to SoC therapy were not.

[5] = test system: patients with symptomatic oHCM; assay: Open-label extension: SRT eligibility per guideline criteria; type: in vivo, human; settings: Week 48 visit; 19 patients (42%) eligible at baseline
From the text: There was a substantial reduction in peak resting and Valsalva LVOT-G from baseline to week 48 [ΔResting mean: −32 mmHg (±28); Δ Valsalva mean: −47 mmHg (±28)] (see FIG. 53 and FIG. 54, respectively). […] There was substantial improvement in NYHA class: by week 48, 88% of patients experienced ≥1 NYHA FC improvement while none had NYHA FC worsening (see FIG. 56). At baseline, 19 patients (42%) were eligible for SRT per guideline criteria of symptoms and hemodynamics, despite receiving beta-blocker, (78%) calcium channel blocker (18%), and disopyramide (22%). […] NT pro-BNP decreased from baseline to Week 48 (from a geometric mean [CV %] of 651.0 [160.4] to 111.1 [93.4] pg/mL), representing a […] reduction from baseline (p<0.0001).

Chain of cardiac myosin (P12883 whole entry): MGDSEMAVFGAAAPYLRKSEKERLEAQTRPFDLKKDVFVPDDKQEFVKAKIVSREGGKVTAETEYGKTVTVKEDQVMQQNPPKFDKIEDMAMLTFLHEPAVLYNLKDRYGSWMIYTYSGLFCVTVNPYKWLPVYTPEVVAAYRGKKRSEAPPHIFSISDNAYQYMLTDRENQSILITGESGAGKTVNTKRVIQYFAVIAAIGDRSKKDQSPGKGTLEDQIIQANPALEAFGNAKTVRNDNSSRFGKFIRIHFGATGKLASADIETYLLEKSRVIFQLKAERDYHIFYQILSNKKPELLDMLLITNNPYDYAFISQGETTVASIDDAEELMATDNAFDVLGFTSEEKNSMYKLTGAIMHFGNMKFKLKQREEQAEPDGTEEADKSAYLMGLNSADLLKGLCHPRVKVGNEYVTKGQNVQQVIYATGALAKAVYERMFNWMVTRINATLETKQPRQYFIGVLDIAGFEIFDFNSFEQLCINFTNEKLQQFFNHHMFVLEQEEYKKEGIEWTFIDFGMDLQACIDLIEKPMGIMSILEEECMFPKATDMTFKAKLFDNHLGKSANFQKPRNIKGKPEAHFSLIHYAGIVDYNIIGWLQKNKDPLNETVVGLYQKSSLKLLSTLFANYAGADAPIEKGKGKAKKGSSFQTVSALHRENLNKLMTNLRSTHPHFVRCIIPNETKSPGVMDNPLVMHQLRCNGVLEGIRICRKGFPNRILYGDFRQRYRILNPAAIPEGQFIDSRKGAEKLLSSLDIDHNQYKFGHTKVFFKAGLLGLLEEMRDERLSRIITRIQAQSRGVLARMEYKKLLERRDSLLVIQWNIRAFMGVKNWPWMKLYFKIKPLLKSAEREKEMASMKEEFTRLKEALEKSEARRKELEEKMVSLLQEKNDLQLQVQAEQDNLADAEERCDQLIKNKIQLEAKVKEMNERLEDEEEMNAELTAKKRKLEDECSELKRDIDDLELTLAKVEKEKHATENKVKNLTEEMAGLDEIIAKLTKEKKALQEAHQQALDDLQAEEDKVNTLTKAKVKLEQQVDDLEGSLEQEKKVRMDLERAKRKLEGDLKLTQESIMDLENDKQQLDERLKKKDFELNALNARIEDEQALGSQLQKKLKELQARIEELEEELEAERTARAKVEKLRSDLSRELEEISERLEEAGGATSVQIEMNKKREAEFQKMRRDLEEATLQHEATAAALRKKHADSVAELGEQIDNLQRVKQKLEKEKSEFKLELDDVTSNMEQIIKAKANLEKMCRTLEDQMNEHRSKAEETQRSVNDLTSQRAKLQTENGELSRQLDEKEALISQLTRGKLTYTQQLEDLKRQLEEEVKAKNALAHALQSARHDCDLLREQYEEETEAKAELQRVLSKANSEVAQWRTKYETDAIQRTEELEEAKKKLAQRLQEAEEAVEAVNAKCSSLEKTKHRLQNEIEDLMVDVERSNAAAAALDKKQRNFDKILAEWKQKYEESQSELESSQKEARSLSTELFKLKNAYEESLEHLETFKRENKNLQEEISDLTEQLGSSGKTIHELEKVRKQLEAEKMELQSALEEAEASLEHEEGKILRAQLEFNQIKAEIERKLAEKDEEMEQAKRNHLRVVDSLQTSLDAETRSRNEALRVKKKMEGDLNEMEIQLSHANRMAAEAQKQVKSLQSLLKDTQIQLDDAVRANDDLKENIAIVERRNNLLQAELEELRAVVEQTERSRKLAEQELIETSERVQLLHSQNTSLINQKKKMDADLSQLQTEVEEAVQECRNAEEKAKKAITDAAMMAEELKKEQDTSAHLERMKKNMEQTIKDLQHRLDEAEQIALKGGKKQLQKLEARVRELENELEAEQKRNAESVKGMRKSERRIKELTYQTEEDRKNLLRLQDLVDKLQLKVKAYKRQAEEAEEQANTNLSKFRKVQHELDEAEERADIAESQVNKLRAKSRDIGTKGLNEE
Chain of cardiac myosin (P08590 whole entry partner): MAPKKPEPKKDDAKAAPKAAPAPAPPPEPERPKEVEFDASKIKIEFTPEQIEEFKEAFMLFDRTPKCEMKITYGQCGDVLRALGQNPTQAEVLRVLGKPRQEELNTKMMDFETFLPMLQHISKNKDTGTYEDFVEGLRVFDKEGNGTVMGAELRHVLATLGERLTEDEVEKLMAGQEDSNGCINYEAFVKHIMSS
Chain of cardiac myosin (P10916 whole entry partner): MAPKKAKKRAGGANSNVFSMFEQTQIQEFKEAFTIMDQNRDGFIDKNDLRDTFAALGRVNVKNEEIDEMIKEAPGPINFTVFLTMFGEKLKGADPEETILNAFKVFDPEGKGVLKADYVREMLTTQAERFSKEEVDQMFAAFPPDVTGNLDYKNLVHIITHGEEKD

CCc1nc(-c2ccc3c(c2)CC[C@H]3NC(=O)c2cnn(C)c2)no1 [aficamten, (R)—N-(5-(5-ethyl-1,2,4-oxadiazol-3-yl)-2,3-dihydro-1H-inden-1-yl)-1-methyl-1H-pyrazole-4-carboxamide]
effect on left ventricular contractility (cardiac myosin): reduced measures of left ventricular contractility
patients with at least some reduction in NT-proBNP levels ([1]; 25 out of the 27 patients on aficamten): 93%
proportional reduction in NT-proBNP levels compared to placebo ([1]; week 10): 62%
impact of food and CYP2D6-PM phenotype on pharmacokinetics ([2]; 10 mg single dose): Neither food nor CYP2D6-PM phenotype had a clinically meaningful impact on pharmacokinetics
steady state achieved by the end of day ([2]; 5-mg and 7.5-mg doses once daily): 12 days
steady state achieved by the end of day ([2]; 10-mg dose once daily): 10 days
CL/F ([2]; CYP2D6 Poor Metabolizers, 10 mg single dose): 3.6 ± 1.4 L/h
maximum time to maximum observed concentration across all participants ([2]; SAD cohorts): 4.0 h
increase of Cmax when taken with food ([2]; food-effect cohort, 10 mg): approximately 30%
CL/F ([2]; food-effect cohort, 10 mg, Fasted (n = 4)): 2.8 ± 0.6 L/h
CL/F ([2]; food-effect cohort, 10 mg, Fed (n = 7)): 3.1 ± 0.9 L/h
time within which steady state is achieved ([2]; once-daily dosing): ≤ 2 weeks
CL/F ([2]; single oral dose 3 mg): 4.2 ± 3.1 L/h
CL/F ([2]; single oral dose 10 mg): 3.0 ± 0.7 L/h
CL/F ([2]; single oral dose 25 mg): 3.6 ± 0.5 L/h
CL/F ([2]; single oral dose 40 mg): 3.4 ± 0.6 L/h
CL/F ([2]; single oral dose 50 mg): 3.8 ± 1.1 L/h
dose proportionality of plasma concentrations / exposure ([2]; single oral doses 1 mg to 50 mg): increased in a dose-proportional manner; also recorded: linear kinetics
safety events deemed related to aficamten therapy by investigators ([3]; BTR/W analysis): no safety events deemed related to aficamten therapy
LVEF during recurrent alcohol induced atrial fibrillation ([3]; one patient on 15 mg): 47%
events of LVEF <50% attributed to aficamten ([3]; open label extension): no events of LVEF <50% attributed to aficamten; also recorded: no patients experienced aficamten related reduction in LVEF <50%; also recorded: no instances of systolic dysfunction (LVEF <50%) attributed to aficamten
tolerability ([3]; open label extension, Example 3a): well tolerated
Patients with TEAE Leading to Dose Reduction ([3]; N = 38): (5%)
Patients with TEAE Leading to Drug Interruption ([3]; N = 38): (3%)
Patients with at Least One Related TEAE ([3]; N = 38): (21%)
Patients with at Least One Severe TEAE ([3]; N = 38): (3%)
Patients with at Least One TEAE ([3]; N = 38): (74%)
Patients with at Least One TESAE ([3]; N = 38): (5%)
Patients with TEAE Leading to Dose Reduction ([3]; N = 38, number of patients): 2
Patients with TEAE Leading to Drug Interruption ([3]; N = 38, number of patients): 1
Patients with at Least One Related TEAE ([3]; N = 38, number of patients): 8
Patients with at Least One Severe TEAE ([3]; N = 38, number of patients): 1
Patients with at Least One TEAE ([3]; N = 38, number of patients): 28
Patients with at Least One TESAE ([3]; N = 38, number of patients): 2
patients achieving any successful BTR/W among those attempted ([4]; 17 of 20 patients with attempted BTR/W): 85%
patients who completely discontinued at least one SoC medication ([4]; BTR/W): 10 patients
patients who withdrew from all SoC (aficamten monotherapy) ([4]; BTR/W): 5 patients
NT-pro B-type Natriuretic Peptide ([4]; post-BTR/W): 532 ± 934 pg/mL
high-sensitivity troponin I ([4]; post-BTR/W): 5.1 ± 1.6 ng/L
mean HR after BTR/W ([4]; post-BTR/W (N=14)): 74±10 bpm
mean Valsalva LVOT-G after BTR/W ([4]; post-BTR/W (N=14)): 42±26 mmHg
increase in Valsalva LVOT-G after BTR/W ([4]; pre- vs post-BTR/W (N=14)): 15 mmHg
increase in resting HR after BTR/W ([4]; pre- vs post-BTR/W (N=14)): 12 bpm
NT-pro B-type Natriuretic Peptide ([4]; pre-BTR/W): 321 ± 424 pg/mL
high-sensitivity troponin I ([4]; pre-BTR/W): 4.8 ± 1.8 ng/L
patients with unsuccessful attempted BTR/W ([4]; reinstitution of BB): 3 patients
patients eligible for SRT per guideline criteria [5]: none of these patients met these criteria; also recorded: eliminated SRT eligibility in all patients
